Experimental data published in patent US20240345094A1, “DOUBLE FRAGMENTATION ISOBARIC TAGGING” (Saint Louis University, priority 2023, published 2024).
“Also recorded” adds a separate entry of the source.

System: Bovine aortic endothelial cells
Test: Changes in thiol metabolism upon γ-glutamyl-cysteine synthetase inhibition (6-plex tagged LC-MS of cell lysates)
Type: cell-based
Settings: 250 μM BSO for 16 hours vs reduced-serum media control
Protocol: Cell culture and lysis: Bovine aortic endothelial cells between passage number 7 and 10 were cultured to confluency in 6 cm plates with Dulbecco's modified eagle medium (DMEM) supplemented with 10% fetal bovine serum (FBS) at 37° C. and 5% CO2. Cell media was swapped with DMEM supplemented with 2% FBS and 250 μM BSO. Control plates were swapped to DMEM with 2% FBS. All plates were lysed after 16 hours as previously described (Filla, L. A., et al., Anal Bioanal Chem 2019, 411 (24), 6399-6407). Briefly, the media was removed and the cells were rapidly rinsed with 1 mL of phosphate-buffered saline. Cells were lysed with the addition of 500 μL of cold 80/20 MeOH/H2O containing 100 mM formic acid and 5 μM of D4 homocysteine as an internal standard. Plates were placed on a dry ice-ethanol bath and the cell contents were collected, then centrifuged at 21,100×g for three minutes. The supernatant was immediately collected and stored on dry ice until derivatization.
Thiol Derivatization: Thiol metabolite stocks were created as individual 500 μM vials with 50/50 H2O/MeOH containing 20 mM formic acid and stored at −20° C. to minimize degradation. Lower concentration stocks were produced by further dilution and derivatized immediately. For cell lysate reactions, 100 μL of the lysate was used for each reaction. Thiol metabolites were added to 100 μL of 100 mM ammonium bicarbonate pH 8. An isotopic iodide tag was then immediately added (100 μL, 100 μM) and left at room temperature to react for 16 hours to ensure a complete reaction. All iodide tags and reactions were handled in the dark to prevent degradation. After the reaction was completed, the samples were mixed with the other isotope variants, dried in a vacuum centrifuge, and reconstituted to 100 μL in the starting mobile phase conditions.
Liquid Chromatography: Fused silica capillary (Polymicro Technologies, Phoenix, AZ) was used to fabricate columns with an inner diameter of 50 μm as previously described (Edwards, J. L., et al, Journal of Chromatography A 2007, 1172 (2), 127-134). Briefly, 50 μm inner diameter capillary was cut to 25 cm, a photopolymerized frit placed 30 mm from the end, then a tip pulled with a Sutter P2000 micropipette puller and etched in 50% HF. The capillary bed was packed to 20 cm with Atlantis silica HILIC 3 μm particles (Waters Corp, Milford, MA). After equilibration the capillary was cut to 17.5 cm for analysis. Flow was delivered by a Thermo Vanquish LC (Thermo Fisher Scientific, Waltham, MA) connected to a stainless steel tee to split the flow. A 50 μm×100 cm open capillary was used as the split to direct 115 nL of the total flow and 4 nL injections to the capillary column (split ratio 1:1500 for bulk flow of 175 μL/min and injection of 6 μL). The split ratio was determined by calculating flow through the capillary based on the experimental dead time and column dimensions. Mobile phase A was pure acetonitrile and mobile phase B was 25 mM ammonium acetate in 80/20 (water/ACN) with 0.05% acetic acid as an additive. The gradient is supplied in Table 1 below.
MS Analysis: A Q-Exactive mass spectrometer (Thermo Fisher Scientific, Waltham, MA) was used for all analyses. An MS^1 survey scan operated at a resolution of 17.5K with an ion injection time of 50 ms and AGC of 1e^6 for m/z 250-650. […] These MS^2 scans operated at a resolution of 140K with an ion injection time of 200 ms, AGC of 1e^5, and the optimized collision energy determined for each analyte. […]

CCCCS(=N)(=O)CCC(N)C(=O)O (centres unmarked) [BSO, Buthionine sulfoximine]
GSH level change (n=3, FIG. 5B): Significant decreases; also recorded: glutathione depletion was observed | cysteinyl-glycine level change (n=3, FIG. 5B): Significant decreases | Glutamyl-cysteine level change (n=3, near the limit of detection): did not change significantly | cysteine level change (n=3, trended upward): did not change | homocysteine level change (n=3, trended upward): did not change
